Experiments:
Test in all cases: radiometric filter-binding kinase assay, Kinase HotSpot
Settings in all cases: compound 0.5 µM; ATP 10 µM
ACVRL1 (human) = ACVRL1 (human) (UniProt P37023)
AKT1 (human) = AKT1 (human) (UniProt P31749)
ALK (human) = ALK (human) (UniProt Q9UM73)
CAMK1D (human) = CAMK1D (human) (UniProt Q8IU85)
CAMK4 (human) = CAMK4 (human) (UniProt Q16566)
CDK4 CCND3 (human) = CDK4 CCND3 (human) (UniProt P30281+P11802)
CSF1R (human) = CSF1R (human) (UniProt P07333)
DYRK3 (human) = DYRK3 (human) (UniProt O43781)
EPHA1 (human) = EPHA1 (human) (UniProt P21709)
EPHA3 (human) = EPHA3 (human) (UniProt P29320)
Chain of EPHA3 (human) (P29320 whole entry, looked up): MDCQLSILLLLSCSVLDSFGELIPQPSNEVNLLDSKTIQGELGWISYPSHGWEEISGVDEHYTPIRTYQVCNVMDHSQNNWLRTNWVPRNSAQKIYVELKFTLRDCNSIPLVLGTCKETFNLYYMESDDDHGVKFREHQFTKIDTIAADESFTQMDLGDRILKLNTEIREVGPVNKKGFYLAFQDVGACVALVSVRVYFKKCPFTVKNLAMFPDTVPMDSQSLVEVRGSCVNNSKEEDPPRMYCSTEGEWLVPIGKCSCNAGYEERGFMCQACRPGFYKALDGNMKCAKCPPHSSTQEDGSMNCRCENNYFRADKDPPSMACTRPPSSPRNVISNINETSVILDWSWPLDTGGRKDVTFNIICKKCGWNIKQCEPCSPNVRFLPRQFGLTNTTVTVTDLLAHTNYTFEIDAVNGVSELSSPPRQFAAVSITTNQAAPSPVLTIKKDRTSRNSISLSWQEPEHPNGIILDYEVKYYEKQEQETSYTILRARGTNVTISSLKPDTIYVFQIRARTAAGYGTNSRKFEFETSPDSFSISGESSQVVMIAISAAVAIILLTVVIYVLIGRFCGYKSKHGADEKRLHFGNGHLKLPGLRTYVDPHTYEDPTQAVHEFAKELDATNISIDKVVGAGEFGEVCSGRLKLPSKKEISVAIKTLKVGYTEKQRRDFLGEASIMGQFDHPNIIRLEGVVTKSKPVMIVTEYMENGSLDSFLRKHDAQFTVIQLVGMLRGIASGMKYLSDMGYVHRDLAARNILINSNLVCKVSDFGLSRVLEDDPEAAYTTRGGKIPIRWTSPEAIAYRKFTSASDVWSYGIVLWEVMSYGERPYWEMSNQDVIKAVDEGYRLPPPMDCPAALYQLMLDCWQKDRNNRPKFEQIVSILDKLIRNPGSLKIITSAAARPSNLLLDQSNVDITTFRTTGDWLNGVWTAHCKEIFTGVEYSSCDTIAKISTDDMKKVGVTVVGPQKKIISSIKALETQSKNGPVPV

EPHA7 (human) = EPHA7 (human) (UniProt Q15375)
FLT1 (human) = FLT1 (human) (UniProt P17948)
FRK (human) = FRK (human) (UniProt P42685)
GRK7 (human) = GRK7 (human) (UniProt Q8WTQ7)
GSG2 (human) = GSG2 (human) (UniProt Q8TF76)
GSK3A (human) = GSK3A (human) (UniProt P49840)
HIPK2 (human) = HIPK2 (human) (UniProt Q9H2X6)
LCK (human) = LCK (human) (UniProt P06239)
MAP4K5 (human) = MAP4K5 (human) (UniProt Q9Y4K4)
MAPKAPK3 (human) = MAPKAPK3 (human) (UniProt Q16644)
MAPKAPK5 (human) = MAPKAPK5 (human) (UniProt Q8IW41)
MARK1 (human) = MARK1 (human) (UniProt Q9P0L2)
Chain of MARK1 (human) (Q9P0L2 whole entry, looked up): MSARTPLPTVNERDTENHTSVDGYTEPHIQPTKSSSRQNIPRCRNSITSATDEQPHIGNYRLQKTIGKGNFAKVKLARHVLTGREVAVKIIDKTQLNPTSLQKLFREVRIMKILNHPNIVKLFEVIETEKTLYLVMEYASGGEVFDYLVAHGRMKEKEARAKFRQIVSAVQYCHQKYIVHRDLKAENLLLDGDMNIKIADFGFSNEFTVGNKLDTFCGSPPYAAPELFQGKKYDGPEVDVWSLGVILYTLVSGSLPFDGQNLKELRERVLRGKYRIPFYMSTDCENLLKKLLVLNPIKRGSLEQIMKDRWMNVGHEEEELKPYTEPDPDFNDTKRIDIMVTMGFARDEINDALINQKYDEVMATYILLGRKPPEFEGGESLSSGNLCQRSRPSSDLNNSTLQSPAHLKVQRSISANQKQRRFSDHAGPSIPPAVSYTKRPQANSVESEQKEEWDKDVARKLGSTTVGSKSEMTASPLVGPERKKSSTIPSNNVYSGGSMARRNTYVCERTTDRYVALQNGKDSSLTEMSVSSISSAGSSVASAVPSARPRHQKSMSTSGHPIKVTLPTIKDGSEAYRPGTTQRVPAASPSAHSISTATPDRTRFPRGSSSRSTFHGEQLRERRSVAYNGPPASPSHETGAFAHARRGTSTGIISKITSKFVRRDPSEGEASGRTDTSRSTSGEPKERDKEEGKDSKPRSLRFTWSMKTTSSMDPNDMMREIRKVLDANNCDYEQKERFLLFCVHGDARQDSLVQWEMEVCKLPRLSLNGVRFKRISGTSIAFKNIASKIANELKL

MINK1 (human) = MINK1 (human) (UniProt Q8N4C8)
MST1R (human) = MST1R (human) (UniProt Q04912)
MUSK (human) = MUSK (human) (UniProt O15146)
NEK9 (human) = NEK9 (human) (UniProt Q8TD19)
NLK (human) = NLK (human) (UniProt Q9UBE8)
Chain of NLK (human) (Q9UBE8 whole entry, looked up): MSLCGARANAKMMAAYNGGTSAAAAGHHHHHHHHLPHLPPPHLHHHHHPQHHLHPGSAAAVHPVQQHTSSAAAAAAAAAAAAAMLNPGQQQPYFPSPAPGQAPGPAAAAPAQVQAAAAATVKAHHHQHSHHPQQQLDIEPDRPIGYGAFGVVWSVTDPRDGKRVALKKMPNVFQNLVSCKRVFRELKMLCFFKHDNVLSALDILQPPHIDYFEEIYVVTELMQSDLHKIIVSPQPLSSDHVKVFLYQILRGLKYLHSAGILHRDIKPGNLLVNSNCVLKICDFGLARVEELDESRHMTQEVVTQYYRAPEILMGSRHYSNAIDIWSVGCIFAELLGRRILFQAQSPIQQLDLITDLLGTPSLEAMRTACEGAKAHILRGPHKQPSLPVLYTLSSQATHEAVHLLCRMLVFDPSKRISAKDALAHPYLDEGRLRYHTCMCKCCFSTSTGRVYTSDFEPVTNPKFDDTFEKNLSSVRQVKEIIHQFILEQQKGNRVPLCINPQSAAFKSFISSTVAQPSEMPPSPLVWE

OXSR1 (human) = OXSR1 (human) (UniProt O95747)
PAK4 (human) = PAK4 (human) (UniProt O96013)
PHKG1 (human) = PHKG1 (human) (UniProt Q16816)
PKN2 (human) = PKN2 (human) (UniProt Q16513)
PRKCZ (human) = PRKCZ (human) (UniProt Q05513)
Chain of PRKCZ (human) (Q05513 whole entry, looked up): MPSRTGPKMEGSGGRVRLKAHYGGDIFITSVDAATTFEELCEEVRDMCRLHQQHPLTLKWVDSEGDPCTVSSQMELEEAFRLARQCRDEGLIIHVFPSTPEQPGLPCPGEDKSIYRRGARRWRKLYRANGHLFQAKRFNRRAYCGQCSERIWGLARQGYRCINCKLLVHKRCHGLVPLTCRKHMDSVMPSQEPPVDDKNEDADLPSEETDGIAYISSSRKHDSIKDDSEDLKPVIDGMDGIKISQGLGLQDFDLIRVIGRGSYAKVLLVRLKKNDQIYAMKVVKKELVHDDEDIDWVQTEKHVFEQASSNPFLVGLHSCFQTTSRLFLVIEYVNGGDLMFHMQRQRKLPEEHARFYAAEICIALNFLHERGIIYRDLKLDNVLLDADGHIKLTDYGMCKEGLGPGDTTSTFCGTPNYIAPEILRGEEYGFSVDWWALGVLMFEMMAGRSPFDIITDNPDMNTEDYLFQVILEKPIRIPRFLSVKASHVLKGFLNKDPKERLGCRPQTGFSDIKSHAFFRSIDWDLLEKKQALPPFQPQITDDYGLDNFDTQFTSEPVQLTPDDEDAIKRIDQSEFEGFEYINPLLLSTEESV

ROS1 (human) = ROS1 (human) (UniProt P08922)
RPS6KA6 KD1 KD2 (human) = RPS6KA6 KD1 KD2 (human) (UniProt Q9UK32)
SRC (human) = SRC (human) (UniProt P12931)
STK33 (human) = STK33 (human) (UniProt Q9BYT3)
Chain of STK33 (human) (Q9BYT3 whole entry, looked up): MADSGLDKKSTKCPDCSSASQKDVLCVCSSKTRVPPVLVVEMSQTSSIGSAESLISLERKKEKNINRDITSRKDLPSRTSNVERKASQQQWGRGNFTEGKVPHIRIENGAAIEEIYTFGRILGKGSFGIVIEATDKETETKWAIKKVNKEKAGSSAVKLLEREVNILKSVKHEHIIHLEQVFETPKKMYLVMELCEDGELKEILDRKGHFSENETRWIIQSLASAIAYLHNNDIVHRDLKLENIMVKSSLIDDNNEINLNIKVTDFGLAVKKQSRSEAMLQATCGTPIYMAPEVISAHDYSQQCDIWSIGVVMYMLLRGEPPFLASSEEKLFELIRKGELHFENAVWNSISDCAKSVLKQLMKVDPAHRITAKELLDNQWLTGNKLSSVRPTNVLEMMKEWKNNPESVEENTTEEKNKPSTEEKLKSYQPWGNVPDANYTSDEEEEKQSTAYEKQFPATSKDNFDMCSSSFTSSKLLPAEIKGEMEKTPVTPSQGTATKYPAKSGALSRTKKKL

STK39 (human) = STK39 (human) (UniProt Q9UEW8)
TAOK1 (human) = TAOK1 (human) (UniProt Q7L7X3)
TAOK2 (human) = TAOK2 (human) (UniProt Q9UL54)
TEC (human) = TEC (human) (UniProt P42680)
TSSK1B (human) = TSSK1B (human) (UniProt Q9BXA7)
ZAP70 (human) = ZAP70 (human) (UniProt P43403)
Chain of ZAP70 (human) (P43403 whole entry, looked up): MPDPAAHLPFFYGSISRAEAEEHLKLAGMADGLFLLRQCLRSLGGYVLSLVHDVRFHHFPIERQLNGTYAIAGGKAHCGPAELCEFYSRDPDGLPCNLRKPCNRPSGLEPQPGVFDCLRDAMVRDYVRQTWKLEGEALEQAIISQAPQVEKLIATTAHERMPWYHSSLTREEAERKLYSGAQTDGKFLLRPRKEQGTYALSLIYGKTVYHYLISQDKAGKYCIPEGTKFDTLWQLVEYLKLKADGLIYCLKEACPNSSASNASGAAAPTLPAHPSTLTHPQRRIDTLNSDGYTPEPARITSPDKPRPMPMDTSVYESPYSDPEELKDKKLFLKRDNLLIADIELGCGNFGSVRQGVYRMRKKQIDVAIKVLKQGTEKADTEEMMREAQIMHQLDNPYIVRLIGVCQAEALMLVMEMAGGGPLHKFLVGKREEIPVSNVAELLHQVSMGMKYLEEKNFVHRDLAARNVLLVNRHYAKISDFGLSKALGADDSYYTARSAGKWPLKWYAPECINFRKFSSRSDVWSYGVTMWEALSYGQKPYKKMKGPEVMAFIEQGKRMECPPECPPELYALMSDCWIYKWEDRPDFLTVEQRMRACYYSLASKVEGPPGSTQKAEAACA

Chain of CSF1R (human) (P07333 whole entry, looked up): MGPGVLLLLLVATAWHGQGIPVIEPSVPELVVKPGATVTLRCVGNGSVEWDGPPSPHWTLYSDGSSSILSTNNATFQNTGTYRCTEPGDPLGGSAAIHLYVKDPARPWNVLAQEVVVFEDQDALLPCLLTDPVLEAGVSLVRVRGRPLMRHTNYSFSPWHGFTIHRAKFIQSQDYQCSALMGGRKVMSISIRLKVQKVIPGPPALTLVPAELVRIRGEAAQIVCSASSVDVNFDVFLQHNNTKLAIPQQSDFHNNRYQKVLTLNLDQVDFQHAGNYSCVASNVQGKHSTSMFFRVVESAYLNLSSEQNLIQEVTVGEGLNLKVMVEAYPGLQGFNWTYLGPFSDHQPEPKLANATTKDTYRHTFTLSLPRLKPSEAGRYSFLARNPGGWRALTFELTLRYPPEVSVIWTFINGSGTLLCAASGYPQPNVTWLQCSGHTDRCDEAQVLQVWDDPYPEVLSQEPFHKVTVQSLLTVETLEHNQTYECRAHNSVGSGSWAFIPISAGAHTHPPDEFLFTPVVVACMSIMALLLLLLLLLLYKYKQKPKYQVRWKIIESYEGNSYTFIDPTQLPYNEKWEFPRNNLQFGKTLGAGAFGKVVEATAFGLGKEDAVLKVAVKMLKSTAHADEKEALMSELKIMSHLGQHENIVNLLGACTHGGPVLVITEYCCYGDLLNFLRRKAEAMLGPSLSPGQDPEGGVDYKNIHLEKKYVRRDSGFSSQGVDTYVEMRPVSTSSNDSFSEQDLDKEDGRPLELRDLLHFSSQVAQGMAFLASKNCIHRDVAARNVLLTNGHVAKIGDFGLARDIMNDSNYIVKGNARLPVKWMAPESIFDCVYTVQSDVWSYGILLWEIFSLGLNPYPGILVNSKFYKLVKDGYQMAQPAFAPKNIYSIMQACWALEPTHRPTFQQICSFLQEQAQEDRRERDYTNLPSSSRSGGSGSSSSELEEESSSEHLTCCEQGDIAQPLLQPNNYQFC

SMILES: COc1cc2nccc(Oc3ccc(NC(=S)NC(=O)c4ccccc4C)cc3)c2cc1OC
- residual activity (ACVRL1 (human)): 91.7%
- residual activity (AKT1 (human)): 95.7%
- residual activity (ALK (human)): 80.8%
- residual activity (CAMK1D (human)): 72.5%
- residual activity (CAMK4 (human)): 103%
- residual activity (CDK4 CCND3 (human)): 93.4%
- residual activity (CSF1R (human)): 10.5%
- residual activity (DYRK3 (human)): 90.8%
- residual activity (EPHA1 (human)): 83%
- residual activity (EPHA3 (human)): 105%
- residual activity (EPHA7 (human)): 90.4%
- residual activity (FLT1 (human)): 89.8%
- residual activity (FRK (human)): 27.5%
- residual activity (GRK7 (human)): 95.6%
- residual activity (GSG2 (human)): 95.9%
- residual activity (GSK3A (human)): 91.4%
- residual activity (HIPK2 (human)): 99.2%
- residual activity (LCK (human)): 1.62%
- residual activity (MAP4K5 (human)): 11.1%
- residual activity (MAPKAPK3 (human)): 102%
- residual activity (MAPKAPK5 (human)): 99%
- residual activity (MARK1 (human)): 91.4%
- residual activity (MINK1 (human)): 90.1%
- residual activity (MST1R (human)): 88.8%
- residual activity (MUSK (human)): 95.9%
- residual activity (NEK9 (human)): 103%
- residual activity (NLK (human)): 100%
- residual activity (OXSR1 (human)): 106%
- residual activity (PAK4 (human)): 100%
- residual activity (PHKG1 (human)): 89.2%
- residual activity (PKN2 (human)): 109%
- residual activity (PRKCZ (human)): 96.9%
- residual activity (ROS1 (human)): 26.7%
- residual activity (RPS6KA6 KD1 KD2 (human)): 93%
- residual activity (SRC (human)): 71.7%
- residual activity (STK33 (human)): 94.6%
- residual activity (STK39 (human)): 91.5%
- residual activity (TAOK1 (human)): 71.3%
- residual activity (TAOK2 (human)): 91.9%
- residual activity (TEC (human)): 90.8%
- residual activity (TSSK1B (human)): 83.6%
- residual activity (ZAP70 (human)): 97%

SMILES: O=C(Nc1ccc(Cl)cc1)c1ccccc1NCc1ccncc1
- residual activity (ACVRL1 (human)): 98.9%
- residual activity (AKT1 (human)): 97.6%
- residual activity (ALK (human)): 103%
- residual activity (CAMK1D (human)): 95.3%
- residual activity (CAMK4 (human)): 101%
- residual activity (CDK4 CCND3 (human)): 94.2%
- residual activity (CSF1R (human)): 18.4%
- residual activity (DYRK3 (human)): 104%
- residual activity (EPHA1 (human)): 97%
- residual activity (EPHA3 (human)): 92.1%
- residual activity (EPHA7 (human)): 95%
- residual activity (FLT1 (human)): 24.8%
- residual activity (FRK (human)): 62.8%
- residual activity (GRK7 (human)): 96.2%
- residual activity (GSG2 (human)): 95.5%
- residual activity (GSK3A (human)): 80.1%
- residual activity (HIPK2 (human)): 93%
- residual activity (LCK (human)): 93.3%
- residual activity (MAP4K5 (human)): 95.8%
- residual activity (MAPKAPK3 (human)): 91.4%
- residual activity (MAPKAPK5 (human)): 88.7%
- residual activity (MARK1 (human)): 94.7%
- residual activity (MINK1 (human)): 96.9%
- residual activity (MST1R (human)): 90.5%
- residual activity (MUSK (human)): 95.9%
- residual activity (NEK9 (human)): 91.2%
- residual activity (NLK (human)): 87.2%
- residual activity (OXSR1 (human)): 96.8%
- residual activity (PAK4 (human)): 90.6%
- residual activity (PHKG1 (human)): 94.2%
- residual activity (PKN2 (human)): 93.2%
- residual activity (PRKCZ (human)): 100%
- residual activity (ROS1 (human)): 100%
- residual activity (RPS6KA6 KD1 KD2 (human)): 104%
- residual activity (SRC (human)): 88.8%
- residual activity (STK33 (human)): 86.4%
- residual activity (STK39 (human)): 94.7%
- residual activity (TAOK1 (human)): 110%
- residual activity (TAOK2 (human)): 102%
- residual activity (TEC (human)): 134%
- residual activity (TSSK1B (human)): 103%
- residual activity (ZAP70 (human)): 103%

SMILES: Oc1ccc(-c2nc(-c3ccc(F)cc3)c(-c3ccncc3)[nH]2)cc1
- residual activity (ACVRL1 (human)): 95.4%
- residual activity (AKT1 (human)): 101%
- residual activity (ALK (human)): 104%
- residual activity (CAMK1D (human)): 102%
- residual activity (CAMK4 (human)): 102%
- residual activity (CDK4 CCND3 (human)): 104%
- residual activity (CSF1R (human)): 96.9%
- residual activity (DYRK3 (human)): 101%
- residual activity (EPHA1 (human)): 94.4%
- residual activity (EPHA3 (human)): 99%
- residual activity (EPHA7 (human)): 86.1%
- residual activity (FLT1 (human)): 90.6%
- residual activity (FRK (human)): 90.4%
- residual activity (GRK7 (human)): 105%
- residual activity (GSG2 (human)): 86.9%
- residual activity (GSK3A (human)): 91.1%
- residual activity (HIPK2 (human)): 102%
- residual activity (LCK (human)): 92.6%
- residual activity (MAP4K5 (human)): 96.6%
- residual activity (MAPKAPK3 (human)): 101%
- residual activity (MAPKAPK5 (human)): 102%
- residual activity (MARK1 (human)): 101%
- residual activity (MINK1 (human)): 102%
- residual activity (MST1R (human)): 102%
- residual activity (MUSK (human)): 86.8%
- residual activity (NEK9 (human)): 99.4%
- residual activity (NLK (human)): 46.1%
- residual activity (OXSR1 (human)): 97.6%
- residual activity (PAK4 (human)): 98.6%
- residual activity (PHKG1 (human)): 94.2%
- residual activity (PKN2 (human)): 101%
- residual activity (PRKCZ (human)): 109%
- residual activity (ROS1 (human)): 89.8%
- residual activity (RPS6KA6 KD1 KD2 (human)): 110%
- residual activity (SRC (human)): 85.9%
- residual activity (STK33 (human)): 103%
- residual activity (STK39 (human)): 94.8%
- residual activity (TAOK1 (human)): 98.5%
- residual activity (TAOK2 (human)): 94.7%
- residual activity (TEC (human)): 106%
- residual activity (TSSK1B (human)): 104%
- residual activity (ZAP70 (human)): 100%

— the kinase profiling compilation of Christmann-Franck et al. (2016)
